From patent US20130030001A1 (priority 2008, published 2013) come the findings set out here.

Data set [1] has as its target T1, human muscarinic acetylcholine M3 receptor (Homo sapiens, UniProt P20309).
T1 construct: expressed in transfected cells; host or cells: CHO-K1 (Chinese Hamster Ovary) cell membranes
Kind of data set: biochemical. The class given is binding.

A short description of the next data set: in vitro. The following applies: human, plasma, pH 7.4.

T1 sequence (P20309 whole entry): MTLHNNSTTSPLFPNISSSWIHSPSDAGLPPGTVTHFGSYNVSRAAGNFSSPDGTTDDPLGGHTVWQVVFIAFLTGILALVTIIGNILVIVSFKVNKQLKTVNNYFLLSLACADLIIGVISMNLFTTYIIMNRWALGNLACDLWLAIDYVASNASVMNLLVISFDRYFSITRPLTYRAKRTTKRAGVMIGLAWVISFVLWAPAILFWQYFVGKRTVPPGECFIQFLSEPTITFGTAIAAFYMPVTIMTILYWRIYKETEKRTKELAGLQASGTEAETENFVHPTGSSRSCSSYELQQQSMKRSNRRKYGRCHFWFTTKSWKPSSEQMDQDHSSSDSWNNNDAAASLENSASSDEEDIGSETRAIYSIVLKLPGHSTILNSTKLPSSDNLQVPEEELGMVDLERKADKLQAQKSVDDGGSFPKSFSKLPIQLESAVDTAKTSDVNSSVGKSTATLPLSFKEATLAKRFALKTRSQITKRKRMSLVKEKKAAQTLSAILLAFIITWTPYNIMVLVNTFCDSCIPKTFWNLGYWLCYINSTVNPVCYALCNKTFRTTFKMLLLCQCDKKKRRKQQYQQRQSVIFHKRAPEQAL

As a reminder, the IC50 is the concentration needed to halve the response being measured. A high value points to lower potency. For orientation: fraction unbound means free concentration divided by total concentration. Low readings indicate extensive binding, high ones weak binding. For `O=C(C[N+]12CCC(CC1)[C@@H](OC(=O)C1(c3cccs3)CCCCCC1)C2)Nc1cnccn1` [Example 11, (R)-1-(Pyrazin-2-ylcarbamoylmethyl)-3-(1-thiophen-2-yl-cycloheptanecarbonyloxy)-1-azonia-bicyclo[2.2.2]octane bromide], the half-inhibitory concentration (IC50) in data set [1] (M3 binding IC50) was < 2 nM. The same compound gave a fraction unbound in the data set “in vitro” of 0.048.

For `O=C(C[N+]12CCC(CC1)[C@@H](OC(=O)C1(c3cccc(F)c3)CCCCCC1)C2)Nc1ccon1` [Example 13, (R)-3-[1-(3-Fluoro-phenyl)-cycloheptanecarbonyloxy]-1-(isoxazol-3-ylcarbamoylmethyl)-1-azonia-bicyclo[2.2.2]octane bromide], half-maximal inhibition in data set [1] (pIC50) (IC50) was put at 0.0794 nM. This compound also showed a fraction unbound in the data set “in vitro” of 0.068.

`O=C(C[N+]12CCC(CC1)[C@@H](OC(=O)C1(c3ccccc3)CCCCCC1)C2)Nc1ccccn1` [Example 15, (R)-3-(1-Phenyl-cycloheptanecarbonyloxy)-1-(pyridin-2-ylcarbamoylmethyl)-1-azonia-bicyclo[2.2.2]octane bromide] gave a free fraction (fraction unbound) in the data set “in vitro” of 0.039.

For `O=C(C[N+]12CCC(CC1)[C@@H](OC(=O)C1(c3ccccc3)CCCCCC1)C2)Nc1ccc(F)cn1` [Example 17, (R)-1-[(5-Fluoro-pyridin-2-ylcarbamoyl)-methyl]-3-(1-phenyl-cycloheptanecarbonyloxy)-1-azonia-bicyclo[2.2.2]octane chloride], the unbound share (fraction unbound) in the data set “in vitro” was 0.024.

Take `Cc1cc(NC(=O)C[N+]23CCC(CC2)[C@@H](OC(=O)C2(c4ccccc4)CCCCCC2)C3)ccn1` [Example 20, (R)-1-[(2-Methyl-pyridin-4-ylcarbamoyl)-methyl]-3-(1-phenyl-cycloheptanecarbonyloxy)-1-azonia-bicyclo[2.2.2]octane chloride]: the unbound share (fraction unbound) in “in vitro” was 0.018.

Consider `O=C(C[N+]12CCC(CC1)[C@@H](OC(=O)C1(c3ccccc3)CCCCCC1)C2)Nc1ccccc1` [Example 21, (R)-1-Phenylcarbamoylmethyl-3-(1-phenyl-cycloheptanecarbonyloxy)-1-azonia-bicyclo[2.2.2]octane bromide], for which, in data set [1] (M3 binding IC50), the concentration for half-maximal inhibition (IC50) was < 2 nM. In “in vitro”, this compound gave a free fraction (fraction unbound) of 0.006.
